In patent US20230210832A1, “METHODS FOR TREATING ALZHEIMER'S DISEASE” (priority 2020, published 2023):
Values after ≈ are worked out from the molar mass of the structure shown.

B1: Ang-2 peptide: human Ang-2 peptide (abcam; ab99482), Tie-2 receptor ligand (protein, UniProt O15123 19-496, looked up)
Angiopoietin-2: YNNFRKSMDSIGKKQYQVQHGSCSYTFLLPEMDNCRSSSSPYVSNAVQRDAPLEYDDSVQRLQVLENIMENNTQWLMKLENYIQDNMKKEMVEIQQNAVQNQTAVMIEIGTNLLNQTAEQTRKLTDVEAQVLNQTTRLELQLLEHSLSTNKLEKQILDQTSEINKLQDKNSFLEKKVLAMEDKHIIQLQSIKEEKDQLQVLVSKQNSIIEELEKKIVTATVNNSVLQKQQHDLMETVNNLLTMMSTSNSAKDPTVAKEEQISFRDCAEVFKSGHTTNGIYTLTFPNSTEEIKAYCDMEAGGGGWTIIQRREDGSVDFQRTWKEYKVGFGNPSGEYWLGNEFVSQLTNQQRYVLKIHLKDWEGNEAYSLYEHFYLSSEELNYRIHLKGLTGTAGKISSISQPGNDFSTKDGDNDKCICKCSQMLTGGWWFDACGPSNLNGMYYPQRQNTNKFNGIKWYYWKGSGYSLKATTMMIRPADF

Columns and labels:
[1] = system: Tg2576 AD model mice and WT (B6/SJL) littermates; assay: Contextual fear conditioning; type: in vivo, mouse; settings: 1-month treatment, mean±standard deviation
Method: Contextual Fear Conditioning: The apparatus consisted of a transparent chamber inside an enclosure with an opening in the ceiling to allow video recordings. The chamber consisted of a steel grid floor connected to a shock generator scrambler. The test encompassed two sessions: conditioning and a context test. On the conditioning day, the mice were individually placed in the chamber and allowed to explore freely for 5 minutes during which, at the 180th second, they received a foot shock of 0.50-0.80 mA for 3 seconds through the bars of the floor. 24 hours after conditioning, the mice were individually placed back in the chamber for 4 minutes, this time with no noxious stimuli. The mice were monitored for movement and freezing behaviour was recorded using computer software (Limelight, ActiMetrics, Wilmette, Ill., USA). Exclusion criteria were set for freezing events less than 2 seconds. This test was used to determine associative working memory. We explored the animal's ability to associate an environment with a noxious event that it experienced there. […] Freezing is a species-specific response to fear, which is defined as “the absence of movement except for respiration.” This may last for seconds to minutes depending on the strength of the aversive stimulus and whether the subject is able to recall the shock.

[2] = mice, 26 weeks of once daily oral gavage administration; cited from earlier work
[3] = physchem; settings: 100% DMSO, organic solvent or mixture
[4] = system: Human brain endothelial cells (HBEC-5i); assay: Western blot of HBEC-5i cell lysates after peptide treatment; type: cell-based; settings: 24 hrs, Aβ peptides 10 μM, Ang-2 200 ng/ml, VEGFA-165 100 ng/ml, vs PBS-treated cells
Method: Human brain endothelial cells, HBEC-5i (ATCC® CRL-3245™) were cultured on 0.1% gelatin coated tissue culture plates in DMEM-F12 media (Gibco; cat. #10565-018) supplemented by 10% heat-inactivated fetal bovine serum (FBS) (Gibco; cat. #A31607-01) and 40 μg/ml endothelial growth supplement (Sigma-Aldrich; cat. #E2759). Cells were grown until they reached 70% confluency and then used for experiments.
Cell culture: Human brain endothelial cells were grown in 10 cm tissue culture plates. […] After the treatment, the medium was removed, and cells were washed with PBS and then lysed with RIPA buffer that contained protease and phosphatase inhibitors. These cells were then used to analyze different proteins of interest.
Immunoblotting analysis and co-immunoprecipitation: For western blot analysis, the fractional homogenate samples were prepared with Dithiothreitol (DTT) in the sample buffer (100 mM Tris-Cl (pH 6.8), 4% (w/v) SDS, 0.2% (w/v) bromophenol blue, 20% (v/v) glycerol and 200 mM DTT). Homogenates were electrophoresed and immunoblotted with indicated antibodies. […] The proteins in the eluate were resolved on the acrylamide gel according to standard practices. […] The signal intensities were imaged by using the Odyssey infrared image system (LICOR), and relative levels of immunoreactivity were analyzed by the Image Studio Lite software.

[5] = system: Tg2576 AD model mice and WT (B6/SJL) littermates; assay: Spontaneous alternation (Y-maze); type: in vivo, mouse; settings: drug-treated Tg2576 mice, 1-month treatment; mean±standard deviation
Method: Spontaneous alternation (Y-maze): The test for novelty exploration using spatial and working memory was conducted using a symmetrical Y-maze with a grey steel bottom plate and grey Perspex® walls (Stoelting Co, Wood Dale, Ill.). Each arm of the Y-maze was 35 cm long, 5 cm wide, and 10 cm high, and the wall at the end of each arm was identified by a different colour: white, blue or red. The spatial acquisition phase comprised a one-day trial with the mice tracked while moving freely through the three arms of the Y maze during an 8-minute session. The movements were tracked by a computer tracking system (ANY-maze, Stoelting). The performance was gauged by the percentage of alternations that was calculated as the total number of alternations×100/(total number of arm entries−2). Alternation was defined as successive entries into the three arms on overlapping triplet sets. A high percentage of alternation was indicative of sustained cognition, as the animals must remember which arm was entered last to avoid re-entering it.

Row | Molecule | freezing percentage ([1]; drug-treated Tg2576 mice) | freezing percentage ([1]; drug-treated WT (B6/SJL) mice) | no-observed-adverse-effect-levels (NOAELs) [2] | solubility [3] | expression of VEGFR2 [4] | percentage of alternation [5]
1 | CNC(=O)c1ccccc1Sc1ccc2c(/C=C/c3ccccn3)n[nH]c2c1 [Axitinib] | 14.4±7.3% | 17.74±14.4% | < 10 mg/kg/day | 40 mg/mL (≈ 103 mM) | – | –
2 | Aβ1-42 peptide: Aβ1-42 peptide (NovoPrep synthetic peptide), predominantly found in plaques | – | – | – | – | did not exert a similar effect | –
3 | CCN(CC)CCNC(=O)c1c(C)[nH]c(/C=C2\C(=O)Nc3ccc(F)cc32)c1C [Sunitinib] | 10.9±5.8% | 25.4±19.4% | – | 30 mg/mL (≈ 75.3 mM) | – | 49.3±12.1%
4 | B1 | – | – | – | – | slight increase | –
